Laboratory results taken from patent US8901276B2, “Peptide reagents and methods for detection of colon dysplasia” (The Regents of the University of Michigan, priority 2010, dated 2014).

Test system: HT29 cells
Assay: Determination of binding constant (plate reader fluorescence)
Design: species or system human
Experimental: The binding affinity of FITC-Peptide 2 to HT29 cells (1×10^5) was determined using various concentrations of the peptide. The fluorescence intensity of the peptide bound to the HT29 cells was measured at saturation. Then, the FITC-labeled peptide was serially diluted in PBS at concentrations that varied from 0 to 70 μmol/L and incubated with 1×10^5 HT29 cells at 4° C. for 1 hr. After washing 3 times with cold PBS/0.2% Tween 20 solution, the unbound peptide was rinsed off. The cells were resuspended in 200 μL PBS and transferred to a 96 well plate. The fluorescence intensity I was measured at 525 nm using 485 nm as the excitation wavelength on a multi-well plate reader (CytoFluor Series 4000; Applied Biosystems Inc, Foster City, Calif.). Binding of the peptide to the cells was calculated using the peptide emission intensity with the same concentration without the cells present. The peptide equilibrium dissociation constant Kd=1/Ka was calculated by performing a least squares fit of the data to the non-linear equation I=(I0+ImaxKa[X])/(I0+Ka[X]). I0 and Imax are the initial and maximum fluorescence intensities, corresponding to no peptide and at saturation, respectively, and [X] represents the concentration of the bound peptide. Origin 6.1 data analysis software (Origin Lab Corp, Northampton, Mass.) was used to fit the equation for non-linear least square fitting. […]

## KCCFPAQ-FITC [FITC-Peptide 2, KCCFPAQ with FITC at the C-terminus on the side chain of lysine residue via GGGSK linker]
FITC-labeled peptide 0 to 70 μM, 4° C., 1 hr, R^2=0.988
  Kd: 65 nM
Summary of results
  Kd: 65 nM
